These results are taken from patent US8518958B2, “Pyrido [2,3-D] pyrimidines and their use as kinase inhibitors” (Forma Therapeutics, Inc., priority 2006, dated 2013).

The target in one assay is B-Raf delta1-415 (Homo sapiens, UniProt P15056). The experiment in a line: B-Raf kinase inhibition (MAPH filter plate, 33P-ATP, MEK1 substrate). The conditions noted are these: read-out: Biochemical IC50 B-Raf. The procedure, abridged:
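Radiometric filter-binding assay with B-Raf delta1-415 at a level giving 50% turnover, MEK1 substrate and 33P-ATP (12.5 μCi/ml) in 20 mM Mops pH 7.0 with Mg/Mn, 1 h at room temperature. Inhibitor dilution series from 10 μM; EDTA-stopped reactions captured on phosphocellulose filters, counted by scintillation for IC50.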

The target of assay [1] is C-Raf Raf-1 (truncated), active (Homo sapiens, UniProt P04049, Y340D/Y341D). The experiment in a line: C-Raf kinase inhibition (MAPH assay / IMAP assay). The conditions noted are these: read-out: Biochemical IC50 C-Raf. In a few lines: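 Truncated active human C-Raf (Y340D/Y341D), room temperature, top inhibitor concentration 10 μM in a dilution series for IC50. MAPH: 57.8 μM myelin basic protein with [γ-33P]ATP, kinase at 10% ATP turnover, 1 h, filter-bound radioactivity. IMAP: 400 nM fluorescent peptide, 20 mM Hepes pH 7.5 with 10 mM MnCl2, kinase at 50% turnover, fluorescence polarization.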
Chain of C-Raf Raf-1 (truncated), active (P04049 306-648 Y340D/Y341D): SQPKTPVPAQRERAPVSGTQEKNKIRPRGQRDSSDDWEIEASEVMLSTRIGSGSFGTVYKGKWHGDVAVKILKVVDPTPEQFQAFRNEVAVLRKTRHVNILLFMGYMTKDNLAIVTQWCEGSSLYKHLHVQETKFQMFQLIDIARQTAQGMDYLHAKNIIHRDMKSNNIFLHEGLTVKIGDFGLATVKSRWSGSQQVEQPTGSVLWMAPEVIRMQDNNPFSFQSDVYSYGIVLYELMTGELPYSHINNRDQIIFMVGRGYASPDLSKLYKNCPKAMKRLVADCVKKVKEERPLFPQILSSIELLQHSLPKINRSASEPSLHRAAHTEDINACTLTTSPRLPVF

For the next assay, the system named is HT-29 tumor cells. In words: Anti-proliferative activity, SRB assay. The class given is cell-based, human. Conditions: Homo sapiens, HT-29, 72 h, 72 hours exposure, read-out: CELLULAR IC50 HT-29. In a few lines:
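Cells at 3,000-15,000/well, plated 24 h before compound, exposed to a concentration range for 72 hours. Proliferation measured by SRB staining after cold TCA fixation, absorbance at OD570; IC50 estimated from % inhibition versus DMSO-treated cells.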
Background: In SRB staining, fixed cells bind dye roughly in proportion to their protein.

For orientation: IC50 means the midpoint of a concentration-inhibition curve.

Chain of B-Raf delta1-415 (P15056 416-766): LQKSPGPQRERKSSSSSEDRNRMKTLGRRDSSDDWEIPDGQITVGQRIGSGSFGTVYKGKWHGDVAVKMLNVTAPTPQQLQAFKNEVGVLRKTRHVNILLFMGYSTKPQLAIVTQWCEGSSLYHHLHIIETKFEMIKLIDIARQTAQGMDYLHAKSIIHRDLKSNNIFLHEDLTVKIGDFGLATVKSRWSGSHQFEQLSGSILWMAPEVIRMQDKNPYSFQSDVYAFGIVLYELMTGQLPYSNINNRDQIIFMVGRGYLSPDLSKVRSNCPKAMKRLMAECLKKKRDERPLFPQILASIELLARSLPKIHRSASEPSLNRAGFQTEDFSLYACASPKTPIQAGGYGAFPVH

Regarding `COn1c(=O)c(-c2c(Cl)cccc2Cl)cc2cnc(Nc3cccc(CO)c3)nc21` [Compound 1, 6-(2,6-Dichlorophenyl)-2-(3-hydroxymethylphenylamino)-8-methoxy-pyrido[2,3-d]pyrimidin-7-one], the results for the IC50 (at B-Raf delta1-415; in assay [1]; in the assay with HT-29 tumor cells) were less than 100 nM, less than 100 nM and less than 1000 nM, respectively.

As for `COn1c(=O)c(-c2cc(NC(=O)c3ccccc3)ccc2Cl)cc2cnc(Nc3ccccc3)nc21` [Compound 29], the IC50 at B-Raf delta1-415 is less than 500 nM; in assay [1], less than 100 nM; in the assay with HT-29 tumor cells, less than 10000 nM.

On to `COn1c(=O)c(-c2cc(NC(=O)c3ccc(Cl)cc3)ccc2Cl)cc2cnc(Nc3ccccc3)nc21` [Compound 37], for which the figures for the IC50 (at B-Raf delta1-415; in assay [1]; with HT-29 tumor cells) were more than 1000 nM, less than 100 nM and less than 10000 nM, respectively.

In the case of `COn1c(=O)c(-c2ccc(Cl)c(Cl)c2)cc2cnc(Nc3cccc(S(N)(=O)=O)c3)nc21` [Compound 64, 2-(3-Aminosulfonlyphenyl)-amino-6-(3,4-dichlorophenyl)-8-methoxy-pyrido[2,3-d]pyrimidin-7-one], the IC50 on B-Raf delta1-415 is less than 500 nM; in assay [1], less than 500 nM; with HT-29 tumor cells, less than 10000 nM.

In the case of `NCCCCOn1c(=O)c(-c2c(Cl)cccc2Cl)cc2cnc(Nc3cccc(S(N)(=O)=O)c3)nc21` [Compound 40, 8-(4-Aminobutoxy)-6-(2,6-dichlorophenyl)-2-(3-sulfamoylphenylamino)-pyrido[2,3-d]pyrimidin-7-one], the IC50 at B-Raf delta1-415 is less than 100 nM; in assay [1], less than 100 nM; in the assay with HT-29 tumor cells, more than 10000 nM.

For the compound `COc1cccc(Cl)c1-c1cc2cnc(Nc3ccc(N4CCN(C)CC4)cc3)nc2n(OC)c1=O` [Compound 39, 6-(2-Chloro-6-methoxyphenyl)-8-methoxy-2-(4-(4-methylpiperazino)-phenylamino)-pyrido[2,3-d]pyrimidin-7-one], the IC50 was less than 500 nM on B-Raf delta1-415, less than 100 nM in assay [1] and less than 1000 nM with HT-29 tumor cells.

In the case of `COn1c(=O)c(-c2c(F)cccc2C(F)(F)F)cc2cnc(Nc3ccc(N4CCN(C)CC4)cc3)nc21` [Compound 53, 6-(2-Fluoro-6-trifluoromethyl-phenyl)-8-methoxy-2-(4-(4-methylpiperazino)-phenylamino)-pyrido[2,3-d]pyrimidin-7-one], the IC50 (at B-Raf delta1-415; in assay [1]; in the assay with HT-29 tumor cells) was less than 1000 nM in each case.

For the compound `COn1c(=O)c(-c2c(Cl)cccc2Cl)cc2cnc(Nc3cccc(SC)c3)nc21` [Compound 2, 6-(2,6-Dichlorophenyl)-8-methoxy-2-(3-methylthiophenylamino)-pyrido[2,3-d]pyrimidin-7-one], the values for the IC50 (at B-Raf delta1-415; in assay [1]; in the assay on HT-29 tumor cells) were less than 100 nM, less than 500 nM and less than 1000 nM, respectively.

As to `CN1CCN(c2ccc(Nc3ncc4cc(-c5c(F)cccc5Cl)c(=O)n(O)c4n3)cc2)CC1` [Compound 241], the IC50 was less than 500 nM at B-Raf delta1-415, more than 1000 nM in assay [1] and less than 1000 nM in the assay on HT-29 tumor cells.

`COn1c(=O)c(-c2ccc(Cl)cc2Cl)cc2cnc(Nc3ccc(N4CCN(C)CC4)cc3)nc21` [Compound 19, 6-(2,4-Dichlorophenyl)-8-methoxy-2-(4-(4-methylpiperazino)-phenylamino)-pyrido[2,3-d]pyrimidin-7-one]: the IC50 is less than 500 nM at B-Raf delta1-415, less than 100 nM in assay [1] and less than 1000 nM with HT-29 tumor cells.

For the compound `COn1c(=O)c(-c2c(Cl)cccc2Cl)cc2cnc(Nc3cc(C(=O)O)n(C)c3)nc21` [Compound 54, 2-(5-Carboxy-1-methyl-pyrrol-3-yl)-amino-6-(2,6-dichlorophenyl)-8-methoxy-pyrido[2,3-d]pyrimidin-7-one], the IC50 on B-Raf delta1-415 is less than 500 nM; in assay [1], less than 100 nM; in the assay with HT-29 tumor cells, less than 10000 nM.

For `COCCOn1c(=O)c(-c2c(Cl)cccc2Cl)cc2cnc(Nc3cccc(OC)c3)nc21` [Compound 68, 6-(2,6-Dichlorophenyl)-8-(2-methoxyethyl)oxy-2-(3-methoxyphenyl)amino-pyrido[2,3-d]pyrimidin-7-one], the figures for the IC50 (on B-Raf delta1-415; in assay [1]; with HT-29 tumor cells) were less than 500 nM, less than 100 nM and less than 1000 nM, respectively.

Take `COn1c(=O)c(-c2cc(NC(=O)c3cccc(C(F)(F)F)c3)ccc2Cl)cc2cnc(Nc3ccccc3)nc21` [Compound 35]: the IC50 on B-Raf delta1-415 is more than 1000 nM; in assay [1] it was less than 500 nM; with HT-29 tumor cells it was less than 1000 nM.

In the case of `CCOn1c(=O)c(-c2c(F)cccc2Cl)cc2cnc(Nc3ccc(N4CCN(C)CC4)cc3)nc21` [Compound 51, 6-(2-Chloro-6-fluorophenyl)-8-ethoxy-2-(4-(4-methylpiperazino)-phenylamino)-pyrido[2,3-d]pyrimidin-7-one], the 50% inhibitory concentration (IC50) on B-Raf delta1-415 is less than 100 nM; in assay [1] it was less than 100 nM; with HT-29 tumor cells, less than 1000 nM.

With `COc1cccc(Nc2ncc3cc(-c4c(F)cccc4Cl)c(=O)n(OC[C@@H](O)CO)c3n2)c1` [Compound 75, 6-(2-Chloro-6-fluorophenyl)-8-(2-(S)-2,3-dihydroxypropyl)oxy-2-(3-methoxyphenyl)amino-pyrido[2,3-d]pyrimidin-7-one], the IC50 was less than 100 nM on B-Raf delta1-415, less than 100 nM in assay [1] and less than 1000 nM in the assay with HT-29 tumor cells.
